Laboratory results: PubChem BioAssay (NCI)
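A five-concentration, 48-hour dose response in 96-well plates underlies each endpoint, interpolated linearly between surrounding concentrations. GI50 is the concentration that inhibits growth by half. TGI: total growth inhibition.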

Experiments:
Assay in all cases: growth of human tumour cells (NCI), 48 h
A498 renal = tested on: A498 renal
ACHN renal = tested on: ACHN renal
CAKI-1 renal = tested on: CAKI-1 renal
OVCAR-3 ovarian = tested on: OVCAR-3 ovarian
RXF 393 renal = tested on: RXF 393 renal
DMS 273 small cell lung = tested on: DMS 273 small cell lung
M19-MEL melanoma = tested on: M19-MEL melanoma
MALME-3M melanoma = tested on: MALME-3M melanoma
SK-OV-3 ovarian = tested on: SK-OV-3 ovarian
SNB-78 CNS = tested on: SNB-78 CNS
SR leukemia = tested on: SR leukemia

`OCCN1CCN(c2nc(Nc3ccc(-c4nc5ccccc5[nH]4)cc3)c3cn[nH]c3n2)CC1` showed a GI50 (A498 renal) of 1.92 µM, a TGI (A498 renal) of 3.44 µM and a GI50 (ACHN renal) of 1.75 µM. It also gave a TGI (ACHN renal) of 3.16 µM, a GI50 (CAKI-1 renal) of 1.72 µM and a TGI (CAKI-1 renal) of 3.13 µM. The GI50 (OVCAR-3 ovarian) was 1.69 µM, the TGI (OVCAR-3 ovarian) was 3.28 µM and the GI50 (RXF 393 renal) was 1.43 µM. The TGI (RXF 393 renal) was 2.85 µM.
`Cc1n(-c2ccccc2)c2c([n+]1Cc1ccc([N+](=O)[O-])cc1)C(=O)c1ccccc1C2=O` was tested, and the TGI (A498 renal) was 25.5 µM, the TGI (ACHN renal) was 13.9 µM and the TGI (CAKI-1 renal) was 39.7 µM. It also gave a TGI (DMS 273 small cell lung) of 3.87 µM, a TGI (M19-MEL melanoma) of 2.93 µM and a TGI (MALME-3M melanoma) of 3.05 µM. The TGI (OVCAR-3 ovarian) was 0.854 µM, the TGI (RXF 393 renal) was 21.5 µM and the TGI (SK-OV-3 ovarian) was 12.5 µM. It also gave a TGI (SNB-78 CNS) of 6.88 µM and a TGI (SR leukemia) of 4.9 µM.
Compound `Nc1nc(Sc2ccc([N+](=O)[O-])cn2)c2[nH]cnc2n1` has a TGI (A498 renal) of 47.8 µM, a TGI (ACHN renal) of over 73.5 µM and a TGI (CAKI-1 renal) of 71.7 µM. It also gave a TGI (MALME-3M melanoma) of 36.1 µM, a TGI (OVCAR-3 ovarian) of over 75 µM and a TGI (RXF 393 renal) of over 30.4 µM. It also gave a TGI (SK-OV-3 ovarian) of over 51.1 µM and a TGI (SR leukemia) of over 100 µM.
With `Cc1cc(=O)[nH]c(NN2C(Cl)C(=O)C2c2c(O)ccc3ccccc23)n1` (configuration not stated) the TGI (ACHN renal) was over 100 µM, the TGI (DMS 273 small cell lung) was 33.1 µM and the TGI (M19-MEL melanoma) was over 100 µM. For the same compound, the TGI (OVCAR-3 ovarian) was 64.9 µM, the TGI (RXF 393 renal) was 26.6 µM and the TGI (SNB-78 CNS) was 70.4 µM. It also gave a TGI (SR leukemia) of 72.7 µM.
In the case of `CCN(CC)CCOCC1CCCN2CCCCC12` (configuration not stated), the TGI (ACHN renal) is reported as over 100 µM, the TGI (CAKI-1 renal) is reported as over 100 µM and the TGI (MALME-3M melanoma) is reported as over 100 µM. For the same compound, the TGI (OVCAR-3 ovarian) was over 100 µM, the TGI (RXF 393 renal) was over 100 µM and the TGI (SK-OV-3 ovarian) was over 100 µM.
In the case of `NS(=O)(=O)c1ccc(N=Nc2nc3[nH]cnc(=S)c3[nH]2)cc1`, the TGI (A498 renal) is reported as 98.9 µM, the TGI (ACHN renal) is reported as over 100 µM and the TGI (CAKI-1 renal) is reported as over 100 µM. The TGI (MALME-3M melanoma) was 36 µM, the TGI (OVCAR-3 ovarian) was over 22.5 µM and the TGI (RXF 393 renal) was over 22.1 µM. The TGI (SR leukemia) was 1.11 µM.
`Cc1n(CC(C)C)c2c([n+]1CC(=O)c1ccc([N+](=O)[O-])cc1)C(=O)c1ccccc1C2=O` was tested, and the TGI (A498 renal) was 2.21 µM, the TGI (CAKI-1 renal) was 1.13 µM and the TGI (DMS 273 small cell lung) was 0.161 µM. The TGI (M19-MEL melanoma) was under 0.0175 µM, the TGI (MALME-3M melanoma) was under 0.0205 µM and the TGI (SK-OV-3 ovarian) was 0.869 µM. The TGI (SNB-78 CNS) was 0.107 µM.
With `NC(N)=NCCCC(NCc1c2ccccc2[n+]([O-])c2ccccc12)C(=O)O` (configuration not stated) the TGI (A498 renal) was over 100 µM, the TGI (ACHN renal) was over 100 µM and the TGI (CAKI-1 renal) was over 100 µM. For the same compound, the TGI (DMS 273 small cell lung) was over 100 µM, the TGI (MALME-3M melanoma) was over 100 µM and the TGI (OVCAR-3 ovarian) was over 100 µM. The TGI (SK-OV-3 ovarian) was over 100 µM and the TGI (SNB-78 CNS) was over 100 µM.
For `COc1cc(O)c2c(c1O)C(=O)c1cc(C)ncc1C2=O`, the TGI (A498 renal) was over 50 µM, the TGI (ACHN renal) was over 50 µM and the TGI (M19-MEL melanoma) was 23.8 µM. The TGI (MALME-3M melanoma) was 27.6 µM, the TGI (OVCAR-3 ovarian) was 45.9 µM and the TGI (RXF 393 renal) was over 50 µM. The TGI (SK-OV-3 ovarian) was 35.7 µM and the TGI (SNB-78 CNS) was over 50 µM.
In the case of `c1ccc(C2=NN[C@H](c3cn(-c4ccccc4)nc3-c3ccccc3)C2)cc1`, the GI50 (MALME-3M melanoma) is reported as 8.98 µM, the TGI (MALME-3M melanoma) is reported as over 100 µM and the GI50 (RXF 393 renal) is reported as 2.58 µM. It also gave a TGI (RXF 393 renal) of 9.85 µM, a GI50 (SK-OV-3 ovarian) of 2.04 µM and a TGI (SK-OV-3 ovarian) of 4.52 µM. For the same compound, the GI50 (SR leukemia) was over 100 µM and the TGI (SR leukemia) was over 100 µM.
For `C=CCCCCn1c2ccccc2c2c(C)c3c[n+](C)ccc3c(C)c21`, the TGI (A498 renal) was 4.42 µM, the TGI (ACHN renal) was 12.8 µM and the TGI (CAKI-1 renal) was 39 µM. It also gave a TGI (M19-MEL melanoma) of 1.41 µM, a TGI (MALME-3M melanoma) of 1.16 µM and a TGI (OVCAR-3 ovarian) of 1.52 µM. The TGI (RXF 393 renal) was 2.11 µM, the TGI (SK-OV-3 ovarian) was 3.2 µM and the TGI (SR leukemia) was 1.1 µM.
Work on `CCCCCCCSCC1OC(n2cnc3c(N)ncnc32)C(O)C1O` (configuration not stated) yielded a TGI (A498 renal) of 32.4 µM, a TGI (ACHN renal) of over 100 µM and a TGI (CAKI-1 renal) of 19.5 µM. For the same compound, the TGI (DMS 273 small cell lung) was 54.2 µM, the TGI (MALME-3M melanoma) was over 100 µM and the TGI (RXF 393 renal) was over 100 µM. For the same compound, the TGI (SNB-78 CNS) was over 100 µM and the TGI (SR leukemia) was 43.4 µM.
Compound `CCCC(=O)[O-].CCCC(=O)[O-].N.N.N.N.[Co+3].[O-][Cl+3]([O-])([O-])[O-]` has a TGI (A498 renal) of over 100 µM, a TGI (ACHN renal) of over 100 µM and a TGI (MALME-3M melanoma) of over 100 µM. It also gave a TGI (OVCAR-3 ovarian) of over 100 µM, a TGI (SK-OV-3 ovarian) of over 100 µM and a GI50 (SNB-78 CNS) of over 100 µM. For the same compound, the TGI (SNB-78 CNS) was over 100 µM.
`Oc1c2c(c3c4c1N=CC=4CCN=3)C1(C=C(Br)C(O)C(Br)=C1)CCN2` (configuration not stated) was tested, and the TGI (A498 renal) was 23.4 µM, the TGI (CAKI-1 renal) was 29.3 µM and the TGI (DMS 273 small cell lung) was 3.45 µM. For the same compound, the TGI (M19-MEL melanoma) was 1.05 µM, the TGI (OVCAR-3 ovarian) was 3.12 µM and the TGI (RXF 393 renal) was 7.57 µM. The TGI (SK-OV-3 ovarian) was 26 µM and the TGI (SNB-78 CNS) was 10.4 µM.
